According to patent publication US20230339900A1, “CASEIN KINASE 1 DELTA MODULATORS” (Janssen Pharmaceutica NV, priority 2020, published 2023):
Where two headings read alike, the source gives them in different places.

Assays:
circadian rhythms [1] = details: in vivo locomotor activity of a variety of species; cited from earlier work
circadian rhythms [2] = details: cellular reporter assays; cited from earlier work
[3] = ob/ob and diet-induced obese mouse, daily administration; cited from earlier work
[4] = conditioned place preference with cocaine and alcohol reinstatement; cited from earlier work
[5] = target: human recombinant GST cleaved CSNK1D (Homo sapiens (Human), UniProt P48730); assay: Purified enzyme assay (ADP-Glo Kinase Assay); assay type: biochemical; details: 2 nM CSNK1D, peptide substrate 150 μM, ATP 20 μM, 45 minutes room temperature
[6] = target: human CSNK1D tagged with nanoluciferase (Homo sapiens (Human), UniProt P48730); assay: Whole Cell nBRET CSNK1D Binding Assay; details: living CHO cells stably expressing human CSNK1D-nanoluciferase; NanoBret tracer 130 nM; 2 hours 37° C.; read-out: CSNK1D BRET IC50
Procedure, shortened: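 Live CHO cells stably expressing nanoluciferase-tagged CSNK1D, seeded in serum-free OptiMEM, received compound dose-response plus NanoBRET tracer (130 nM) for 2 h at 37 °C.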

human CSNK1D tagged with nanoluciferase, sequence (P48730 whole entry): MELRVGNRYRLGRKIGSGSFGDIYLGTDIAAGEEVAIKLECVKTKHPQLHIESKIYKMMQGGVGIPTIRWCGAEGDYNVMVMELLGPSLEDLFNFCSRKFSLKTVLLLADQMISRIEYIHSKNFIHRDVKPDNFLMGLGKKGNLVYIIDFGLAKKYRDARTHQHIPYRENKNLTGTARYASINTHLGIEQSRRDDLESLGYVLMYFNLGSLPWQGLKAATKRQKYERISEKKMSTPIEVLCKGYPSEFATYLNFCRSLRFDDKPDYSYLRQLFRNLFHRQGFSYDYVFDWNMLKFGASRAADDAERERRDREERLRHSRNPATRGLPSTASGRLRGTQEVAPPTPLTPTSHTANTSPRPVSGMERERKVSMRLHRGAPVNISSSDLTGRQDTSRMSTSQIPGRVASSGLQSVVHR
human recombinant GST cleaved CSNK1D, sequence (P48730 whole entry): as above

Structure (SMILES)	AC50 [5] [nM]	IC50 [6] [nM]	effect on circadian rhythms (circadian rhythms [1])	effect on circadian rhythms (circadian rhythms [2])	effect on glucose tolerance [3]	efficacy in addiction/substance abuse models [4]
Nc1nccc(-c2c(-c3ccc(F)cc3)ncn2C2CCN(Cc3ccon3)CC2)n1 [PF-5006739]	–	–	significantly lengthened circadian rhythms	significantly lengthened circadian rhythms	improve glucose tolerance	–
Nc1nccc(-c2c(-c3ccc(F)cc3)ncn2C2CCCCC2)n1 [PF-670462]	–	–	significantly lengthened circadian rhythms	significantly lengthened circadian rhythms	–	have shown efficacy
Cc1cc(-c2cn(C3COC3)nc2-c2ccc(F)cn2)c2cn[nH]c2n1 [Example 73, 4-(3-(5-Fluoropyridin-2-yl)-1-(oxetan-3-yl)-1H-pyrazol-4-yl)-6-methyl-1H-pyrazolo[3,4-b]pyridine]	20	576	–	–	–	–
Cn1cc(-c2ccnc3[nH]ccc23)c(-c2ncc(F)cn2)n1 [Example 43, 4-[3-(5-Fluoropyrimidin-2-yl)-1-methyl-pyrazol-4-yl]-1H-pyrrolo[2,3-b]pyridine]	31	268	–	–	–	–
Cn1cc(-c2ccnc3[nH]ccc23)c(-c2ccncc2)n1 [Example 17, 4-[1-Methyl-3-(4-pyridyl)pyrazol-4-yl]-1H-pyrrolo[2,3-b]pyridine]	101	1640	–	–	–	–
Cn1cc(-c2ccnc3cn[nH]c23)c(-c2ccc(F)cn2)n1 [Example 5, 7-(3-(5-Fluoropyridin-2-yl)-1-methyl-1H-pyrazol-4-yl)-1H-pyrazolo[4,3-b]pyridine]	15	460	–	–	–	–
Fc1ccc(-c2nn(C(F)F)cc2-c2ccnc3[nH]ncc23)nc1 [Example 66, 4-(1-(Difluoromethyl)-3-(5-fluoropyridin-2-yl)-1H-pyrazol-4-yl)-1H-pyrazolo[3,4-b]pyridine]	526	1070	–	–	–	–
Cn1cc(-c2ccnc3[nH]ccc23)c(-c2cncc(F)c2)n1 [Example 21, 4-[3-(5-Fluoro-3-pyridyl)-1-methyl-pyrazol-4-yl]-1H-pyrrolo[2,3-b]pyridine]	14	356	–	–	–	–
Cc1cc(-c2cn(C)nc2-c2ccc(Cl)c(C)n2)c2cn[nH]c2n1 [Example 39, 4-(3-(5-Chloro-6-methylpyridin-2-yl)-1-methyl-1H-pyrazol-4-yl)-6-methyl-1H-pyrazolo[3,4-b]pyridine]	128	3250	–	–	–	–
CCC(=O)Nc1cc(-c2cn(C)nc2-c2ccc(F)cn2)ccn1 [Example 1, N-(4-(3-(5-Fluoropyridin-2-yl)-1-methyl-1H-pyrazol-4-yl)pyridin-2-yl)propionamide]	5	107	–	–	–	–

Now from value to compound, other results behind:

AC50 [5] [nM]	IC50 [6] [nM]	Structure (SMILES)	effect on circadian rhythms (circadian rhythms [1])	effect on circadian rhythms (circadian rhythms [2])	effect on glucose tolerance [3]	efficacy in addiction/substance abuse models [4]
1	41	Cc1cc(-c2cn(C)nc2-c2ccc(F)cn2)c2cc[nH]c2n1 [Example 80, 4-[3-(5-Fluoro-2-pyridyl)-1-methyl-pyrazol-4-yl]-6-methyl-1H-pyrrolo[2,3-b]pyridine]	–	–	–	–
46	962	Cn1cc(-c2ccnc3ccc(F)nc23)c(-c2ccc(F)cn2)n1 [Example 127, 2-Fluoro-8-[3-(5-fluoro-2-pyridyl)-1-methyl-pyrazol-4-yl]-1,5-naphthyridine]	–	–	–	–
28	382	COc1ncc(-c2nn(C)cc2-c2cc(C)nc3[nH]ncc23)cc1Cl [Example 142, 4-[3-(5-Chloro-6-methoxy-3-pyridyl)-1-methyl-pyrazol-4-yl]-6-methyl-1H-pyrazolo[3,4-b]pyridine]	–	–	–	–
48	1280	Cn1cc(-c2ncnc3[nH]ccc23)c(-c2ccc(F)cn2)n1 [Example 102, 4-(3-(5-Fluoropyridin-2-yl)-1-methyl-1H-pyrazol-4-yl)-7H-pyrrolo[2,3-d]pyrimidine]	–	–	–	–
3	71	Cn1cc(-c2c(C#N)cnc3[nH]ccc23)c(-c2ccc(F)cn2)n1 [Example 89, 4-[3-(5-Fluoro-2-pyridyl)-1-methyl-pyrazol-4-yl]-1H-pyrrolo[2,3-b]pyridine-5-carbonitrile]	–	–	–	–
124	> 10000	Cn1cc(-c2ccnc3cc(C#N)ccc23)c(-c2ccc(F)cn2)n1 [Example 149, 4-[3-(5-Fluoro-2-pyridyl)-1-methyl-pyrazol-4-yl]quinoline-7-carbonitrile]	–	–	–	–
2	376	Cn1cc(-c2c(CC3COC3)cnc3[nH]ccc23)c(-c2ccc(F)cn2)n1 [Example 95, 4-(3-(5-Fluoropyridin-2-yl)-1-methyl-1H-pyrazol-4-yl)-5-(oxetan-3-ylmethyl)-1H-pyrrolo[2,3-b]pyridine]	–	–	–	–
